{"source": "patent US20220280548A1", "about": "“COMBINATION THERAPY FOR SPINAL MUSCULAR ATROPHY” (Biogen MA Inc., priority 2019, published 2022)", "test_system": "neonatal (P0-P1) SMA mice having a human SMN2 transgene", "test": "Body weight and righting reflex in neonatal SMA mice given nusinersen and/or AAV-SMN1 (Example 9)", "format": "in vivo", "conditions": "monotherapy, single dose", "protocol": "Nusinersen and AAV-SMN1 were administered to neonatal (P0-P1) SMA mice having a human SMN2 transgene. A low or high dose of nusinersen (1 μg and 3 μg respectively) was administered to the mice along with a low or high dose of AAV-SMN1 (1×10^10 GC or 3×10^10 GC respectively) at birth (P0-P1). The mice body weight and righting reflex were measured and compared to the body weight and righting reflex of control mice of the same genotype having received either nusinersen or AAV-SMN1 alone.\n[…]", "note": "“Also recorded” adds a separate entry of the source."}
{"substance": "nusinersen (antisense UCACUUUCAUAAUGCUGG; 2'-O-MOE, phosphorothioate, chemistry not fully specified) [uniformly modified 2′-O-(2-methoxyethyl) phosphorothioate antisense oligonucleotide consisting of 18 nucleotide residues, targets intron 7 of SMN2 pre-mRNA]", "values": [{"measurement": "rescue of motor function (righting reflex)", "setting": "PND 16", "value": "full rescue"}, {"measurement": "rescue of motor function (righting reflex)", "setting": "postnatal day (PND) 8", "value": "partially rescues; also recorded: partial rescue"}, {"measurement": "body weight", "setting": "relative to WT control", "value": "lags behind the WT control"}]}
